Reference: the NIST ThermoML archive (doi:10.1016/j.jct.2007.07.005)

Assay: xn = mol fraction of the nth substance listed
Details: Fluid (supercritical or subcritical phases), vibrating tube

CCCCCO [pentan-1-ol] + O=C=O
Details | mass density [kg/m3]
313.11 K, 24020 kPa, x2 = 0.0816 | 821.33
313.11 K, 25023 kPa, x2 = 0.0816 | 822.02
313.12 K, 10002 kPa, x2 = 0.8573 | 809.77
313.12 K, 10012 kPa, x2 = 0.7274 | 838.41
313.12 K, 11010 kPa, x2 = 0.7274 | 841.91
313.12 K, 11023 kPa, x2 = 0.8573 | 818.98
313.12 K, 11998 kPa, x2 = 0.7274 | 845.15
313.12 K, 12025 kPa, x2 = 0.8573 | 826.77
313.12 K, 13005 kPa, x2 = 0.8573 | 833.59
313.12 K, 13032 kPa, x2 = 0.7274 | 848.39
313.12 K, 14012 kPa, x2 = 0.8573 | 839.94
313.12 K, 14027 kPa, x2 = 0.7274 | 851.37
313.12 K, 15004 kPa, x2 = 0.7274 | 854.2
313.12 K, 15004 kPa, x2 = 0.8573 | 845.66
313.12 K, 15995 kPa, x2 = 0.8573 | 851
313.12 K, 16022 kPa, x2 = 0.7274 | 857
313.12 K, 17007 kPa, x2 = 0.8573 | 856.08
313.12 K, 17019 kPa, x2 = 0.7274 | 859.65
313.12 K, 18013 kPa, x2 = 0.8573 | 860.84
313.12 K, 18018 kPa, x2 = 0.7274 | 862.21
313.12 K, 19038 kPa, x2 = 0.8573 | 865.44
313.12 K, 19055 kPa, x2 = 0.7274 | 864.78
313.12 K, 19966 kPa, x2 = 0.7274 | 866.98
313.12 K, 20008 kPa, x2 = 0.8573 | 869.59
313.12 K, 21008 kPa, x2 = 0.8573 | 873.67
313.12 K, 21014 kPa, x2 = 0.7274 | 869.44
313.12 K, 22009 kPa, x2 = 0.8573 | 877.54
313.12 K, 22029 kPa, x2 = 0.7274 | 871.77
313.12 K, 23015 kPa, x2 = 0.8573 | 881.34
313.12 K, 23059 kPa, x2 = 0.7274 | 874.05
313.12 K, 23995 kPa, x2 = 0.8573 | 884.88
313.14 K, 5019 kPa, x2 = 0.1347 | 808.85
313.14 K, 6010 kPa, x2 = 0.1347 | 809.58
313.14 K, 7003 kPa, x2 = 0.1347 | 810.4
313.14 K, 8042 kPa, x2 = 0.1347 | 811.24
313.14 K, 9023 kPa, x2 = 0.1347 | 812.05
313.14 K, 10012 kPa, x2 = 0.1347 | 812.85
313.14 K, 11019 kPa, x2 = 0.1347 | 813.62
313.14 K, 12025 kPa, x2 = 0.1347 | 814.42
313.14 K, 13017 kPa, x2 = 0.1347 | 815.18
313.14 K, 14011 kPa, x2 = 0.1347 | 815.96
313.14 K, 15011 kPa, x2 = 0.1347 | 816.73
313.14 K, 16014 kPa, x2 = 0.1347 | 817.47
313.14 K, 17041 kPa, x2 = 0.1347 | 818.22
313.14 K, 18022 kPa, x2 = 0.1347 | 818.95
313.14 K, 19022 kPa, x2 = 0.1347 | 819.67
313.14 K, 20012 kPa, x2 = 0.1347 | 820.39
313.14 K, 21027 kPa, x2 = 0.1347 | 821.12
313.14 K, 22024 kPa, x2 = 0.1347 | 821.83
313.14 K, 23011 kPa, x2 = 0.1347 | 822.55
313.14 K, 24032 kPa, x2 = 0.1347 | 823.28
313.14 K, 25004 kPa, x2 = 0.1347 | 824
313.17 K, 8123 kPa, x2 = 0.6054 | 838.39
313.17 K, 9084 kPa, x2 = 0.6054 | 840.4
313.17 K, 10125 kPa, x2 = 0.6054 | 842.5
313.17 K, 11050 kPa, x2 = 0.6054 | 844.32
313.17 K, 12045 kPa, x2 = 0.6054 | 846.23
313.17 K, 13094 kPa, x2 = 0.6054 | 848.18
313.17 K, 14054 kPa, x2 = 0.6054 | 849.93
313.17 K, 15019 kPa, x2 = 0.6054 | 851.65
313.17 K, 16045 kPa, x2 = 0.6054 | 853.41
313.17 K, 17046 kPa, x2 = 0.6054 | 855.12
